# Measurements taken from US20090082304A1, “Methods of Treating Hematological Malignancies with Nucleoside Analog Drugs” (NORTHWESTERN UNIVERSITY, priority 2004, published 2009).
# How the values were obtained:
# Assay type in all cases: cell-based
# [1] = tested on: caspase 9; assay: Caspase 9 activation immunoblot in MM.1 S cells; conditions: 10 μM
# Experimental: (§1) 5×10^6 were cells treated with 10 μM 8-NH2-Ado for the indicated times and harvested. Cell pellets were washed with cold phosphate-buffered saline (PBS; 8.1 g NaCl, 1.14 g Na2HPO4, 0.22 g KCl, and 0.25 g/L KH2PO4) and incubated with lysis buffer (50 mM HEPES, 150 mM NaCl, 1.5 mM MgCl2, 1 mM EDTA pH 8.0, 100 mM NaFI, 10 mM Na Pyrophosphate, 500 μM PMSF, 0.5% Triton X-100, 10% glycerol) at 4° C. for one hour. Lysates were centrifuged at 4° C. for 1 minute at 9000×g, and the supernatants were collected and stored at −20° C. Protein concentration was determined by Bio-Rad protein assay (BioRad Laboratories, Hercules, Calif.). Protein, at a concentration of 30 μg, was mixed with sample buffer (125 mM Tris, pH 6.8, 4% SDS, 20% glycerol, 100 mM Dithiothreitol (DTT), and 0.05% bromophenol blue), and fractionated on a pre-cast 8-16% Tris-Glycine gel (Invitrogen/Novex, Carlsbad, Calif.). […]
# MM.1 S cells were exposed to 10 μM 8-NH2-Ado for 0, 0.5, 1, 2, 4 or 6 hours, after which cells were lysed as previously described. […] Total protein levels were also assessed to ensure equal loading and transfer (data not shown). […]
# [2] = tested on: p38 in RPMI-8226, MDR10V and MM.1 R cells; assay: Phosphorylation of p38 in additional myeloma cell lines; conditions: data not shown
# Experimental: as §1
# The effect of 8-NH2-Ado treatment on phosphorylation levels was assessed in additional myeloma cell lines, to determine whether the drug-induced alterations in protein phosphorylation occur in multiple cells lines or are limited to the MM.1 S myeloma cell line.
# [3] = tested on: ATF-2; assay: Immunoblot of phospho-ATF-2 in MM.1 S cells; conditions: 10 μM, by 2 hours
# Experimental: (§2) 5×10^6 were cells treated with 10 μM 8-NH2-Ado for the indicated times and harvested. Cell pellets were washed with cold phosphate-buffered saline (PBS; 8.1 g NaCl, 1.14 g Na2HPO4, 0.22 g KCl, and 0.25 g/L KH2PO4) and incubated with lysis buffer (50 mM HEPES, 150 mM NaCl, 1.5 mM MgCl2, 1 mM EDTA pH 8.0, 100 mM NaFI, 10 mM Na Pyrophosphate, 500 μM PMSF, 0.5% Triton X-100, 10% glycerol) at 4° C. for one hour. Lysates were centrifuged at 4° C. for 1 minute at 9000×g, and the supernatants were collected and stored at −20° C. Protein concentration was determined by Bio-Rad protein assay (BioRad Laboratories, Hercules, Calif.). Protein, at a concentration of 30 μg, was mixed with sample buffer (125 mM Tris, pH 6.8, 4% SDS, 20% glycerol, 100 mM Dithiothreitol (DTT), and 0.05% bromophenol blue), and fractionated on a pre-cast 8-16% Tris-Glycine gel (Invitrogen/Novex, Carlsbad, Calif.). Proteins were then transferred to a Polyvinylidene Fluoride (PVDF) membrane (Immobilon-P, Millipore, Bedford, Mass.): Following protein transfer, membranes were blocked with 5% non-fat milk in PBS-T (PBS with 0.1% Tween), incubated with the primary antibody overnight at 4° C. and subsequently with horseradish peroxidase linked secondary antibody (Amersham, Arlington Heights, Ill.). […]
# [4] = tested on: FKHRL1; assay: Immunoblot of phospho-FKHRL1 in MM.1 S cells; conditions: 10 μM
# Experimental: as §2
# [5] = tested on: MKP1; assay: Immunoblot of MKP1 in MM.1 S cells; conditions: 10 μM, 0-6 hours
# Experimental: as §1
# One possible mechanism for the decrease in phosphorylation of the kinase molecules and their substrates is an increase in the activity of the phosphatase(s) that regulate them. To test this hypothesis, levels of MKPI, a dual specificity phosphatase that can act to dephosphorylate p38 MAPK, were assessed MM.1 S cells were exposed to 10 μM 8-NH2-Ado for 0, 0.5, 1, 2, 4 and 6 hours after which cells were lysed as previously described. […]
# [6] = tested on: STAT proteins; assay: Phosphorylation status of STAT proteins
# [7] = tested on: MM cells
# Experimental: The MTS assay was performed as described previously (Krett et al., Clin Cancer Res. 3: 1781-1787). Briefly, MM cells were cultured into 96 well dishes at a concentration of 25,000 cells per well and incubated with the 8-NH2-Ado for 72 hours. Cell proliferation was determined using the MTS Cell Titer Aqueous assay (Promega, Madison, Wis.), which measured the conversion of a tetrazolium compound into formazan by a mitochondrial dehydrogenase enzyme in live cells. The quantity of formazan product as measured by the amount of 490 nm absorbance is directly proportional to the number of living cells in culture. The data were expressed as the percentage of formazan produced by the cells treated with the control medium in the same assay.
# [8] = tested on: JNK; assay: Immunoblot of phospho-JNK in MM.1 S cells; conditions: 10 μM, 0-6 hours
# Experimental: as §2
# [9] = tested on: PKC-8; assay: Phosphorylation status of PKC-8
# [10] = tested on: total protein levels of the signaling proteins in myeloma cells; assay: Immunoblot reprobe with total protein antibodies
# Experimental: 5×10^6 were cells treated with 10 μM 8-NH2-Ado for the indicated times and harvested. Cell pellets were washed with cold phosphate-buffered saline (PBS; 8.1 g NaCl, 1.14 g Na2HPO4, 0.22 g KCl, and 0.25 g/L KH2PO4) and incubated with lysis buffer (50 mM HEPES, 150 mM NaCl, 1.5 mM MgCl2, 1 mM EDTA pH 8.0, 100 mM NaFI, 10 mM Na Pyrophosphate, 500 μM PMSF, 0.5% Triton X-100, 10% glycerol) at 4° C. for one hour. Lysates were centrifuged at 4° C. for 1 minute at 9000×g, and the supernatants were collected and stored at −20° C. Protein concentration was determined by Bio-Rad protein assay (BioRad Laboratories, Hercules, Calif.). Protein, at a concentration of 30 μg, was mixed with sample buffer (125 mM Tris, pH 6.8, 4% SDS, 20% glycerol, 100 mM Dithiothreitol (DTT), and 0.05% bromophenol blue), and fractionated on a pre-cast 8-16% Tris-Glycine gel (Invitrogen/Novex, Carlsbad, Calif.). Proteins were then transferred to a Polyvinylidene Fluoride (PVDF) membrane (Immobilon-P, Millipore, Bedford, Mass.): Following protein transfer, membranes were blocked with 5% non-fat milk in PBS-T (PBS with 0.1% Tween), incubated with the primary antibody overnight at 4° C. and subsequently with horseradish peroxidase linked secondary antibody (Amersham, Arlington Heights, Ill.). Blots were developed using ECL Plus Chemiluminescent Western Blotting Detection reagent (Amersham, Arlington Heights, Ill.) and the signal was visualized with X-ray film (Hyperfilm, Amersham, Arlington Heights, Ill.). For reprobing purposes, blots were stripped using Restore Western Blot Stripping Buffer from Pierce Biotechnology (Rockford, Ill.). Phospho-MKK3/6 (Ser189/207), phospho-p38 (Thr180/Tyr182), phospho-ATF-2 (Thr69/71), phospho-c-Raf (Ser259), phospho-MEK1/2 (Ser217/221), total MEK1/2, phospho-ERK1/2 (Thr202/Tyr204), total ERK1/2, phospho-p90RSK (Ser380), total RSK, phospho-PDK1 (Ser241), total PDKI, phospho-PTEN (Ser380), total PTEN, phospho-Akt (Ser473), total Akt, phospho-GSK-3β (Ser9), total GSK-3β, phospho-FKHRLI (Thr32)/-FKHR (Thr24), phospho-FKHR (Ser256) primary antibodies were obtained from Cell Signaling Technology (Beverly, Mass.). Total MKK3, total MKK6, total p38, total ATF-2, total c-Raf, total FKHR, total FKHRLI, phospho-JNK and total JNK were purchased from Santa Cruz Biotechnology (Santa Cruz, Calif.). Caspase 3, caspase 9, and PARP antibodies were obtained from Pharmingen (San Diego, Calif.) and anti-MKP1 from Upstate (Lake Placid, N.Y.). Anti-caspase 8 mouse serum was a generous gift of Dr. Marcus Peter (University of Chicago).
# MM.1 S cells were exposed to 10 μM 8-NH2-Ado for 0, 0.5, 1, 2, 4 and 6 hours, after which cells were lysed as previously (Example 2). 30 μg of protein was separated by gel electrophoresis, transferred to PVDF membrane, and probed with phosphorylation-specific antibodies to MKK3/6, p38 MAPK, ATF-2, MEK1/2, ERK1/2, p90RSK, JNK1, PDK1, Akt, FKHRL1 and GSK-3β. […] FIGS. 1A, 1B, 1C and 1D provide the results of the blots.
smiles,measurement,setting,value
"Nc1ncnc2c1nc(N)n2[C@@H]1O[C@H](CO)[C@@H](O)[C@H]1O [8-NH2-Ado, 8-amino-adenosine]",time at which cleaved and activated caspase 9 appears,[1],2 to 4 h
same,Phosphorylation levels of p38,[2],decrease in a dose-dependent manner
same,levels of phosphorylated ATF-2,[3],falling considerably
same,FKHRLI phosphorylation,[4]; at 4 and 6 hours,no appreciable phosphorylation
same,FKHRLI phosphorylation,[4]; by 2 hours,decreases dramatically
same,MKP1 levels,[5],unaltered
same,phosphorylation status of the STAT proteins,[6],unaltered
same,cytotoxicity,[7],cytotoxic
same,effect on normal versus malignant cells,[7],differential effect
same,JNK phosphorylation,[8],unaffected
same,phosphorylation status of PKC-8,[9],unaltered
same,"Total protein levels of the p38 MAPK module (MKK3/6, p38, ATF-2)","[10]; MM.1 S cells, 10 μM, 0-6 hours",remain unchanged
same,total ERK1/2 levels,"[10]; MM.1 S cells, 10 μM, 0-6 hours",remain unchanged
same,total MEK1/2 protein levels,"[10]; MM.1 S cells, 10 μM, 0-6 hours",do not change
same,total p90RSK protein levels,"[10]; MM.1 S cells, 10 μM, 0-6 hours",unaffected
same,total protein levels of Forkhead family members,"[10]; MM.1 S cells, 10 μM, 0-6 hours",do not change
same,total p38 levels,"[10]; RPMI-8226, MDR10V and MM.1 R cells",remain unchanged
